# Test results: PMC11407943, “Cdc14 phosphatases use an intramolecular pseudosubstrate motif to stimulate and regulate catalysis” (The Journal of Biological Chemistry, 2024)
# Starred links: 1 amine or outer side, 2 acyl side, 3 side chain; linkers in the order of their positions; H or OH if unused. Positions of bridges follow the written chain, without caps; N, C: chain ends. Non-standard residues stand in square brackets, D forms with d. Residues, ends and D or L forms follow the SMILES beside them. No end group written: not given here. *: point of attachment. hTyr(3S-OH,4S-OH,3'-OSO3H) = N[C@H](C(=O)O)[C@H](O)[C@@H](O)c1ccc(O)c(OS(=O)(=O)O)c1; Orn(4R-OH,5R-OH) = O=C([C@H](C[C@@H](O)[C@@H](O)N[*:3])N[*:1])[*:2]; Pro(3S-OH,4S-Me) = C[C@H]1CN[C@H](C(=O)O)[C@H]1O; X1 = CCCCCOc1ccc(-c2cc(-c3ccc(C(=O)*)cc3)no2)cc1; Gln(3R-OH) = NC(=O)C[C@@H](O)[C@H](N)C(=O)O; Hyp = O=C(O)[C@@H]1C[C@@H](O)CN1; pS = N[C@@H](COP(=O)(O)O)C(=O)O
# Experiments:
# hCdc14A^3A [1] = molecular target: T1, hCdc14A^3A (Homo sapiens, UniProt Q9UNH5, L399A/R400A/K403A); settings: n = 3
# T1 construct: gene CDC14A
# Method: (§1) Data from velocity versus substrate concentration plots were fit with the Michaelis–Menten equation in GraphPad Prism (https://www.graphpad.com/) to determine steady-state kinetic parameters kcat and KM. For trans peptide stimulation assays, DiFMUP was used at a single concentration well above the measured KM for each enzyme. […] (where pS is phosphoSer), were assayed in Cdc14 reaction buffer with Biomol Green (Enzo Life Science) detection of released inorganic phosphate as previously described ([29]). Data were fit with a modified Michaelis–Menten equation including a substrate inhibition term in Prism.
# (§2) B, initial velocities as a function of increasing DiFMUP concentration were measured under steady-state conditions for the indicated ScCdc14 variants. […] Data are average values from at least three independent measurements. Error bars are SDs. Lines are best fits for the Michaelis–Menten equation. C, to better visualize differences in KM, all Vmax values from data in panel A were normalized to 1. […] E, a representative presteady-state reaction progress graph for reaction of the indicated ScCdc14 enzyme variants with 200 μM DiFMUP, measured in a stopped flow spectrofluorometer. Data were fit with Equation 1 (see Experimental procedures) to generate rates of the burst phase (kburst) of the reaction. […]
# hCdc14A^Q395A = molecular target: T2, hCdc14A^Q395A (Homo sapiens, UniProt Q9UNH5, Q395A); settings: n = 3
# T2 construct: gene CDC14A
# Method: as §1, §2
# hCdc14A^1-413 = molecular target: T3, hCdc14A^1-413 (Homo sapiens, UniProt Q9UNH5); settings: n = 3
# T3 construct: gene CDC14A
# Method: as §1, §2
# [2] = test system: C. albicans cdc14^S411A and cdc14^S411E strains; assay: Agar plate patch assay, C. albicans cdc14 mutant strains; settings: colonies arising from cdc14^S411A and cdc14^S411E strains; YPD + 50 ng/ml micafungin
# Method: Values are means of at least six independent measurements and error bars are SDs. […] E, agar plate patch assay with the indicated Candida albicans strains on YPD or YPD + 50 ng/ml micafungin. Plates were incubated at 30 °C for 72 h prior to imaging. Images in panels D and E are representative of multiple experiments performed with three independent isolates of the Ala and Glu mutant strains.
# S. cerevisiae and C. albicans cultures were grown in yeast extract/peptone/dextrose (YPD) medium (10 g/l yeast extract, 20 g/l peptone, and 20 g/l glucose) at 30 °C with shaking at 225 rpm. C. albicans strains were supplemented with 8 μg/ml uridine. […] Agar was added to 20% (w/v) for growth on solid medium. […] For C. albicans patch assays, single colonies were resuspended in 100 μl PBS and spread on YPD agar plates ± 50 ng/ml micafungin.
# hCdc14A^3A [3] = assay: Trans stimulation of hCdc14A^3A by synthetic SLiCE peptides; settings: for trans stimulation, interchangeability test: 2 mM peptide, 100 μM DiFMUP, 10 nM hCdc14A^3A, versus unstimulated; for stimulation of activity: near-saturating DiFMUP (300 μM), pH 7.5, 30 °C
# Method: (§3) B, same as panel A with WT hCdc14A that contains a functional SLiCE motif. […] All reactions contained 200 μM peptide substrate and were run for 30 min. […] Data are means of six measurements and error bars are SDs. D, same as panel C with hCdc14A enzyme at 1 μM for human SLiCE substrate and 100 nM for yeast SLiCE and Acm1pS3 substrates. E, peptide stimulation assays using 10 μM DiFMUP as substrate were conducted as in Figures 3A and 6A with ScCdc14^1-374 (50 nM) and 2 mM each stimulating peptide. F, same as panel E with hCdc14A^3A (10 nM) using 100 μM DiFMUP.
# (§4) For trans peptide stimulation assays, DiFMUP was used at a single concentration well above the measured KM for each enzyme. […] (where pS is phosphoSer), were assayed in Cdc14 reaction buffer with Biomol Green (Enzo Life Science) detection of released inorganic phosphate as previously described ([29]). Data were fit with a modified Michaelis–Menten equation including a substrate inhibition term in Prism.
# ScCdc14^1-374 = assay: Trans stimulation of ScCdc14^1-374 by synthetic SLiCE peptides; assay type: biochemical, Saccharomyces cerevisiae; settings: for trans stimulation, interchangeability test: 2 mM peptide, 10 μM DiFMUP, 50 nM ScCdc14^1-374, versus unstimulated
# ScCdc14^1-449 = ScCdc14^1-449 (Saccharomyces cerevisiae, UniProt Q00684); assay: Dephosphorylation of SLiCE phosphopeptides by ScCdc14^1-449; settings: 200 μM peptide, 30 min; enzyme 50 nM (yeast SLiCE), 1 μM (human SLiCE), 25 nM (Acm1pS3); mean of six
# Method: as §3, §4
# WT hCdc14A = assay: Trans stimulation of WT hCdc14A by synthetic SLiCE peptides; settings: near-saturating DiFMUP (300 μM), pH 7.5, 30 °C
# Method: as §3, §4
# hCdc14A [4] = assay: Dephosphorylation of SLiCE phosphopeptides by hCdc14A; settings: 200 μM peptide, 30 min; enzyme 1 μM (human SLiCE), 100 nM (yeast SLiCE and Acm1pS3); mean of six
# Method: as §3, §4
# ScCdc14 = assay: Inhibition of ScCdc14 activity toward DiFMUP (not shown); assay type: biochemical, Saccharomyces cerevisiae
# hCdc14A [5] = assay: Inhibition of hCdc14A activity toward DiFMUP (not shown); assay type: biochemical, human
# Sequence of ScCdc14^1-449 (Q00684 1-449): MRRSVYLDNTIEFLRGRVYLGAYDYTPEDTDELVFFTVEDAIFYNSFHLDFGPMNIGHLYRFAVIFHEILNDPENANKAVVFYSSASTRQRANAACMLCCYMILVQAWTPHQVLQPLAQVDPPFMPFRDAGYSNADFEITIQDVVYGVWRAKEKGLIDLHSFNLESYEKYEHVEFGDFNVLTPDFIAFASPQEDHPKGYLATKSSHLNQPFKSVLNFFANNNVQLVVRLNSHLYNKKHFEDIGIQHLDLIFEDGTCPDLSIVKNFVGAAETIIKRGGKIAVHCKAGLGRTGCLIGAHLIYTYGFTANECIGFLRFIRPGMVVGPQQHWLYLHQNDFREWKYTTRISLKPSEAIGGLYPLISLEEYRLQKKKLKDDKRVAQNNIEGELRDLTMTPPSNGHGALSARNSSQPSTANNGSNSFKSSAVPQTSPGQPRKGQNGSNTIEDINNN
# T1 sequence (Q9UNH5 1-413 L399A/R400A/K403A): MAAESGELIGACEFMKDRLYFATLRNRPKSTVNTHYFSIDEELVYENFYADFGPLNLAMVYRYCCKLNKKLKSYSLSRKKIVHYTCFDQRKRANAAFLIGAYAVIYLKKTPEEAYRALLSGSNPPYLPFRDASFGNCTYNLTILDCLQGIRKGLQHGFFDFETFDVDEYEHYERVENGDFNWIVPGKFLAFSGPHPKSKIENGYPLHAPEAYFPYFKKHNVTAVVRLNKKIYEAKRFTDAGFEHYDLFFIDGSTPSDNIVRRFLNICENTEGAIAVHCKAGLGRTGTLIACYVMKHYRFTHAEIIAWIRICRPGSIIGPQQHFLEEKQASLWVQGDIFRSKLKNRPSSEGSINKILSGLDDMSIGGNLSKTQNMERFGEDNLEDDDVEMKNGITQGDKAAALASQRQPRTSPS
# T3 sequence (Q9UNH5 1-413): as the sequence (Q9UNH5 1-413 L399A/R400A/K403A) above, with A399L, A400R, A403K counted along it
# T2 sequence (Q9UNH5 1-413 Q395A): as the sequence (Q9UNH5 1-413 L399A/R400A/K403A) above, with Q395A, A399L, A400R, A403K counted along it
compound,measurement,setting,value
Cc1cc(=O)oc2c(F)c(OP(=O)(O)O)c(F)cc12 [DiFMUP],Km,hCdc14A^3A [1],0.52 µM
same,Km,hCdc14A^Q395A,2.6 µM
same,Km,hCdc14A^1-413,24 µM
"CCCCCOc1ccc(-c2cc(-c3ccc(C(=O)N[C@H]4C[C@@H](O)[C@@H](O)NC(=O)[C@@H]5[C@@H](O)[C@@H](C)CN5C(=O)[C@H]([C@H](O)CC(N)=O)NC(=O)[C@H]([C@H](O)[C@@H](O)c5ccc(O)c(OS(=O)(=O)O)c5)NC(=O)[C@@H]5C[C@@H](O)CN5C(=O)[C@H]([C@@H](C)O)NC4=O)cc3)no2)cc1 [micafungin] (X1-[Orn(4R-OH,5R-OH)]T[Hyp][hTyr(3S-OH,4S-OH,3'-OSO3H)][Gln(3R-OH)][Pro(3S-OH,4S-Me)]; lactam 1-C)",sensitivity of sporadic faster growing colonies,[2],resistant
QTSPGQPRKGQN [yeast SLiCE peptide],"trans stimulation, interchangeability test",hCdc14A^3A [3],no effect on hCdc14A activity
same,"trans stimulation, interchangeability test",ScCdc14^1-374,only able to significantly stimulate ScCdc14
same,stimulation of catalytic rate,"ScCdc14^1-374; near-saturating DiFMUP (60 μM), pH 7.5, 30 °C, normalized to no added peptide, at least three independent measurements",dose-dependent stimulation
QTSPG[pS]PRKGQN [yeast SLiCE phosphopeptide],dephosphorylation as substrate,ScCdc14^1-449,"excellent Cdc14 substrate for both ScCdc14 and hCdc14A, almost as reactive as the optimal Acm1pS3 phosphopeptide"
TAGDKLRALKSQR [Q395A peptide],stimulation of activity,WT hCdc14A,little effect on activity of either enzyme
same,stimulation of activity,hCdc14A^3A [3],little effect on activity of either enzyme
TQGDKAAALASQR [3A peptide],stimulation of activity,WT hCdc14A,little effect on activity of either enzyme
same,stimulation of activity,hCdc14A^3A [3],little effect on activity of either enzyme
TQGDKLRALKSQR [human SLiCE peptide],stimulation of activity,WT hCdc14A,relatively small effect
same,"trans stimulation, interchangeability test",hCdc14A^3A [3],strongly stimulating hCdc14A
same,stimulation of activity,hCdc14A^3A [3],strongly stimulated activity
same,"trans stimulation, interchangeability test",ScCdc14^1-374,failed to significantly stimulate ScCdc14
"T[pS]GDKLRALKSQR [human SLiCE phosphopeptide, T(pS)… where pS is phosphoserine]",dephosphorylation as substrate,hCdc14A [4],could not be dephosphorylated
same,inhibition of activity toward DiFMUP,ScCdc14,unable to detect any inhibition
same,inhibition of activity toward DiFMUP,hCdc14A [5],unable to detect any inhibition
same,dephosphorylation as substrate,ScCdc14^1-449,could not be dephosphorylated
